{"source": "patent US8338380B2", "about": "“Use of the peptide RFMWMR as a therapeutic agent” (priority 2007, dated 2012)", "system": "drug-resistant Mycobacterium tuberculosis", "conditions": "5 micrograms per ml"}
{"substance": "Ac-RFMWMR-NH2 [Ac-Arg-Phe-Met-Trp-Met-Arg-NH2]", "values": [{"measurement": "% inhibition", "result": 100.0, "unit": "%"}]}
